From ChEMBL document CHEMBL5370540, “Discovery of pyrimidine-5-carboxamide derivatives as novel salt-inducible kinases (SIKs) inhibitors for inflammatory bowel disease (IBD) treatment” (Eur J Med Chem, 2023)
Activity calls are given as the source filed them. The rule behind the calls is not given here.

Columns and labels:
[1] = Metabolic stability in human liver microsomes assessed as half life; assay type: ADME, Microsome
[2] = Metabolic stability in mouse liver microsomes assessed as half life; assay type: ADME, Microsome
[3] = target: T1, Serine/threonine-protein kinase SIK2 (Homo sapiens, UniProt Q9H0K1); test: Inhibition of SIK2 (unknown origin) assessed as residual activity at 0.1 uM relative to control
Target sequence in this assay (Q9H0K1 whole entry, looked up): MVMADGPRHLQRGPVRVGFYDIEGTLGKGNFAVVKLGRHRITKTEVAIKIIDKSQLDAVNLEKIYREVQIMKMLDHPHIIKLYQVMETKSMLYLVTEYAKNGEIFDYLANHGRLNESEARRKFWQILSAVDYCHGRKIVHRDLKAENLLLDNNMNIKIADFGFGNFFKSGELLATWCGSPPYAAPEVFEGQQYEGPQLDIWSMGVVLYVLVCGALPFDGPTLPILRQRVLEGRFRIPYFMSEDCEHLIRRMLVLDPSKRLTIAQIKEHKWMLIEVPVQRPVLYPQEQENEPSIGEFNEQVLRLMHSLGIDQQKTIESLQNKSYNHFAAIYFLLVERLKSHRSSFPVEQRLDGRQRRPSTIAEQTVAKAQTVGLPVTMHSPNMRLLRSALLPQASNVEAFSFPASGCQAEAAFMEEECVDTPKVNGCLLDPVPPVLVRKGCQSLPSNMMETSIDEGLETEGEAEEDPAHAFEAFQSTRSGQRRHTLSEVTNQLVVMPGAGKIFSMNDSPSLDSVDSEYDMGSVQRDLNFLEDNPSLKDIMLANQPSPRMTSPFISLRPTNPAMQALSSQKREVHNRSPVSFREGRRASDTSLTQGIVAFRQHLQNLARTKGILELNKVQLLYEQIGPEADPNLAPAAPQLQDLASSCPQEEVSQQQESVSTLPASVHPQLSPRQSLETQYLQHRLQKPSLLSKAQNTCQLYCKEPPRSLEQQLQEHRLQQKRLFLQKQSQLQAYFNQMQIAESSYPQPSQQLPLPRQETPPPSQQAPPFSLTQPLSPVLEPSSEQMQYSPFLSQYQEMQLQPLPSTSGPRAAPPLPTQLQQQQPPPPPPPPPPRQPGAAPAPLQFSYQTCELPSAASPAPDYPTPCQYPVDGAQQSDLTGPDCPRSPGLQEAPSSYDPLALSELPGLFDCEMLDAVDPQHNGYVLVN

[4] = target: T2, Serine/threonine-protein kinase SIK1 (Homo sapiens, UniProt P57059); test: Inhibition of SIK1 (unknown origin) assessed as residual activity at 0.1 uM relative to control
T2 sequence (P57059 whole entry): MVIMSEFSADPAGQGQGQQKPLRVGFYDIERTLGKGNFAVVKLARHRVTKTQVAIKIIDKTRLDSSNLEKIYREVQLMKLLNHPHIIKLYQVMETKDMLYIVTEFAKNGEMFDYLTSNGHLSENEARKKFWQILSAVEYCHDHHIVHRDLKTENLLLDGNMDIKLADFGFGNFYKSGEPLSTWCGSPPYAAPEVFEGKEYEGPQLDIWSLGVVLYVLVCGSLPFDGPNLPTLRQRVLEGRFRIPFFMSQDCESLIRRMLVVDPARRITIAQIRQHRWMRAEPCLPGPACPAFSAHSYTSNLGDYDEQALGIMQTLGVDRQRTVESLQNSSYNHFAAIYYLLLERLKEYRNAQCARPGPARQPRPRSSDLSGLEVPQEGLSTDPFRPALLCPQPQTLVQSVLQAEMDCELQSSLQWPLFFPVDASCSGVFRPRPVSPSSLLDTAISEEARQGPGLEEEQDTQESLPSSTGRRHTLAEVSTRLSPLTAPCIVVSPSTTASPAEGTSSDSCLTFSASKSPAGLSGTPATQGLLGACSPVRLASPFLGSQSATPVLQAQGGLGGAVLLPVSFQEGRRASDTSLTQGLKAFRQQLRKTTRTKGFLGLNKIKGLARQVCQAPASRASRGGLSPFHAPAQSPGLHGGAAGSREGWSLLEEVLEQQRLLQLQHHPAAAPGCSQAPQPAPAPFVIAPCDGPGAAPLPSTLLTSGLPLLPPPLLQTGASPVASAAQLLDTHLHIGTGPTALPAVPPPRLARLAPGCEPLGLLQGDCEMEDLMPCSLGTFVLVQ

[5] = target: T3, Serine/threonine-protein kinase SIK3 (Homo sapiens, UniProt Q9Y2K2); test: Inhibition of SIK3 (unknown origin) assessed as residual activity at 0.1 uM relative to control
Target sequence in this assay (Q9Y2K2 whole entry, looked up): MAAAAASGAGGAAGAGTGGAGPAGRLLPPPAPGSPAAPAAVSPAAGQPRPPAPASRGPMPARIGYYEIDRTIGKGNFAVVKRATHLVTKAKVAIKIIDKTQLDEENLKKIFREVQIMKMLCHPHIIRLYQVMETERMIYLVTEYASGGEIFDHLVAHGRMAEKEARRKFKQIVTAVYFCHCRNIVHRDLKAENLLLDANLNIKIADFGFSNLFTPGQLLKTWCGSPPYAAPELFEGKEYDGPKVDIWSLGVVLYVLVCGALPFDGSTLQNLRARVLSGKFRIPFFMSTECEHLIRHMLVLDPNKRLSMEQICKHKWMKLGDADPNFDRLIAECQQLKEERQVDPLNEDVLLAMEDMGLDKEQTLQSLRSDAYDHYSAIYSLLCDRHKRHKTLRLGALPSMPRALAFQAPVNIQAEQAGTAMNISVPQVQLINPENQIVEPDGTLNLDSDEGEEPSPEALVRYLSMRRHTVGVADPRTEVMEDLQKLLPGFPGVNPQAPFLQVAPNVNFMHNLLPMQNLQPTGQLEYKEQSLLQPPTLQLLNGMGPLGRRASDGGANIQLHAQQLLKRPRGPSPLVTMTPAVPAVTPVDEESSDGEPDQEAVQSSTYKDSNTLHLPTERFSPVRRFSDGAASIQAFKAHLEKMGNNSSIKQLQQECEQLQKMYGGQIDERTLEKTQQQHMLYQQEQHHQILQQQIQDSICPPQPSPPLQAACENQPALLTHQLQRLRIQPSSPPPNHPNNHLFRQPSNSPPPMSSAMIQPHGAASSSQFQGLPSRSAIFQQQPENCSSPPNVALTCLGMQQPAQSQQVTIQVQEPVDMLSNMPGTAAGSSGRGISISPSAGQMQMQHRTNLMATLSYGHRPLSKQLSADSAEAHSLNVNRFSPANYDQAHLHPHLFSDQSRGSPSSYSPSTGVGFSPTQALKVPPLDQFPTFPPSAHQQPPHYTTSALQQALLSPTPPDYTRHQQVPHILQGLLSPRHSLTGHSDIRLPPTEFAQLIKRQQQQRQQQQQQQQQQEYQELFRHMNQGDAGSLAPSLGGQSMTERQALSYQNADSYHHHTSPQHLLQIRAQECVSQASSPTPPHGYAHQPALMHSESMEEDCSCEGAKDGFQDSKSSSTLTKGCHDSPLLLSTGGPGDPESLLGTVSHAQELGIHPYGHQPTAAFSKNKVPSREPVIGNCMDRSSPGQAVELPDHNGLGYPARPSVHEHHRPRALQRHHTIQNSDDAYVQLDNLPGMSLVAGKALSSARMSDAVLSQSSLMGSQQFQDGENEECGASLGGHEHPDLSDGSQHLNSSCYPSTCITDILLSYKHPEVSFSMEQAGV

[6] = Half life in Sprague-Dawley rat at 5 mg/kg, iv measured upto 24 hrs by LC/MS/MS analysis; assay type: ADME, organism-based; conditions: in vivo
[7] = Clearance in Sprague-Dawley rat at 5 mg/kg, po measured upto 24 hrs by LC/MS/MS analysis; assay type: ADME, organism-based; conditions: in vivo
[8] = Oral bioavailability in Sprague-Dawley rat at 5 mg/kg measured upto 24 hrs by LC/MS/MS analysis; assay type: ADME, organism-based; conditions: in vivo
[9] = Half life in Sprague-Dawley rat at 5 mg/kg, po measured upto 24 hrs by LC/MS/MS analysis; assay type: ADME, organism-based; conditions: in vivo
BMDM [10] = test: Cytotoxicity against C57BL/6J mouse BMDM cells assessed as cell viability upto 500 nM preincubated for 1 hr followed by LPS stimulation measured after 2 to 4 hrs by CCK8 assay; assay type: toxicity, cell-based; conditions: 0.5 µM, time 3-5 hrs
[11] = Cmax in Sprague-Dawley rat at 5 mg/kg, po measured upto 24 hrs by LC/MS/MS analysis; assay type: ADME, organism-based; set-up: time < 24 hrs, dose 5 mg/kg, route po; conditions: in vivo
BMDM [12] = test: Anti-inflammatory activity against C57BL/6J mouse BMDM cells assessed as increase in IL-10 level at 500 nM preincubated for 1 hr followed by LPS stimulation measured after 2 to 8 hrs by ELISA method; assay type: functional, cell-based; conditions: time 3-9 hrs
BMDM [13] = test: Anti-inflammatory activity against C57BL/6J mouse BMDM cells assessed as decrease in IL-12 level at 500 nM preincubated for 1 hr followed by LPS stimulation measured after 4 to 8 hrs by ELISA method; assay type: functional, cell-based; conditions: time 5-9 hrs
[14] = Protein binding in human plasma at 10 uM measured for 8 hrs by dialysis method; assay type: ADME, cell-free; conditions: read-out: PPB (converted)
[15] = Tmax in Sprague-Dawley rat at 5 mg/kg, po measured upto 24 hrs by LC/MS/MS analysis; assay type: ADME, organism-based; conditions: in vivo
[16] = AUC (0 to t) in Sprague-Dawley rat at 5 mg/kg, iv measured upto 24 hrs by LC/MS/MS analysis; assay type: ADME, organism-based; set-up: time < 24 hrs, dose 5 mg/kg, route iv; conditions: in vivo
BMDM [17] = test: Anti-inflammatory activity against C57BL/6J mouse BMDM cells assessed as decrease in IL-12 level upto 500 nM preincubated for 1 hr followed by LPS stimulation measured after 8 hrs by ELISA method; assay type: functional, cell-based; conditions: time 9.0 hrs
BMDM [18] = test: Anti-inflammatory activity against C57BL/6J mouse BMDM cells assessed as decrease in IL-12 level at 500 nM preincubated for 1 hr followed by LPS stimulation measured after 8 hrs by ELISA method; assay type: functional, cell-based; conditions: time 9.0 hrs
[19] = AUC (0 to t) in Sprague-Dawley rat at 5 mg/kg, po measured upto 24 hrs by LC/MS/MS analysis; assay type: ADME, organism-based; set-up: time < 24 hrs, dose 5 mg/kg, route po; conditions: in vivo
[20] = Cmax in Sprague-Dawley rat at 5 mg/kg, iv measured upto 24 hrs by LC/MS/MS analysis; assay type: ADME, organism-based; set-up: dose 5 mg/kg, time < 24 hrs, route iv; conditions: in vivo
[21] = Clearance in Sprague-Dawley rat at 5 mg/kg, iv measured upto 24 hrs by LC/MS/MS analysis; assay type: ADME, organism-based; conditions: in vivo
[22] = Tmax in Sprague-Dawley rat at 5 mg/kg, iv measured upto 24 hrs by LC/MS/MS analysis; assay type: ADME, organism-based; conditions: in vivo
[23] = target: T1, Serine/threonine-protein kinase SIK2; test: Inhibition of SIK2 (unknown origin)
Target sequence in this assay (Q9H0K1 whole entry): as the sequence (Q9H0K1 whole entry, looked up) above

[24] = Selectivity ratio of IC50 for SIK3 (unknown origin) to IC50 for SIK2 (unknown origin)
[25] = Selectivity ratio of IC50 for SIK1 (unknown origin) to IC50 for SIK2 (unknown origin)
[26] = target: T2, Serine/threonine-protein kinase SIK1; test: Inhibition of SIK1 (unknown origin)
[27] = target: T3, Serine/threonine-protein kinase SIK3; test: Inhibition of SIK3 (unknown origin)
Target sequence in this assay (Q9Y2K2 whole entry): as the sequence (Q9Y2K2 whole entry, looked up) above

[28] = Protein binding in mouse plasma; assay type: ADME, cell-free; conditions: read-out: PPB

## CNc1nc(Nc2ccc(N3CCN(C)CC3)cc2)ncc1C(=O)Nc1c(C)cccc1C
[1]
  half-life: 17.5 min

## COc1ccc(N2C(=O)N(c3c(C)cccc3Cl)Cc3cnc(Nc4ccc(N5CCN(C)CC5)cc4)nc32)nc1
[2]
  half-life: 27 min

## Cc1cccc(C)c1NC(=O)c1cnc(Nc2ccc(N3CCN(C)CC3)cc2)nc1NC1CCCCC1
[1]
  half-life: 37.3 min

## CN1CCN(c2ccc(Nc3ncc(C(=O)Nc4c(F)cccc4F)c(NC4CCC4)n3)cc2)CC1
[3]
  Activity: 10%
[4]
  Activity: 12%
[5]
  Activity: 93%
[1]
  half-life: 49.5 min

## Cc1cccc(C)c1NC(=O)c1cnc(Nc2ccc(N3CCN(C)CC3)cc2F)nc1NC1CCC1
[1]
  half-life: > 120 min

## Cc1cccc(C)c1NC(=O)c1cnc(Nc2ccc(N3CCN(C)CC3)c(Cl)c2)nc1NC1CCC1
[1]
  half-life: 56.6 min

## Cc1cccc(Br)c1NC(=O)c1cnc(Nc2ccc(N3CCN(C)CC3)cc2)nc1NC1CCC1
[3]
  Activity: 52%
[5]
  Activity: 66%
[1]
  half-life: 21.5 min

## COc1cc(Nc2ncc(C(=O)Nc3c(C)cccc3C)c(NC3CC3)n2)ccc1N1CCN(C)CC1
[1]
  half-life: 52.1 min

## COc1ccc(Nc2nc(Nc3ccc(N4CCN(C)CC4)cc3)ncc2C(=O)Nc2c(C)cccc2C)c(OC)c1
[1]
  half-life: > 120 min

## Cc1cccc(C)c1NC(=O)c1cnc(Nc2ccc(N3CCNCC3)cc2)nc1NC1CCC1
[1]
  half-life: 33 min

## Cc1cccc(C)c1NC(=O)c1cnc(Nc2ccc(CN3CCOCC3)cc2)nc1NC1CCC1
[1]
  half-life: 6.5 min

## Cc1cccc(C)c1NC(=O)c1cnc(Nc2ccc(N3CCN(C)CC3)cc2)nc1NC1CCC1
[1]
  half-life: 44.7 min

## Cc1cccc(C)c1NC(=O)c1cnc(Nc2ccc(N3CCN(C)CC3)cc2)nc1NC(C)C
[1]
  half-life: 24.3 min

## COc1cc(Nc2ncc(C(=O)Nc3c(C)cccc3C)c(NC3CCC3)n2)ccc1N1CCN(C)CC1
[1]
  half-life: 48.6 min

## COc1ccc(N(C(=O)Nc2c(C)cccc2C)c2cc(Nc3ccc(N4CCN(C)CC4)cc3)ncn2)c(OC)c1
[6]
  half-life: 210 min
[7]
  CL/F: 223 mL/min/kg
[8]
  bioavailability: 47.2%
[9]
  half-life: 150 min
BMDM [10]
  Activity: Non-Toxic
[11]
  Cmax: 149 ng/mL
BMDM [12]
  Activity: Active
BMDM [13]
  Activity: inactive
[2]
  half-life: 11 min
[14]
  fraction unbound at 8 h, 10 µM: < 0.01
[15]
  Tmax: 78 min
[16]
  AUC(0-t) at 24 h: 1110 ng·h/mL
BMDM [17]
  Activity: Active
BMDM [18]
  Activity: Active
[19]
  AUC(0-t) at 24 h: 522 ng·h/mL
[1]
  half-life: 14.4 min
[20]
  Cmax: 1290 ng/mL
[21]
  clearance: 76.7 mL/min/kg
[22]
  Tmax: 6 min

## Cc1cccc(F)c1NC(=O)c1cnc(Nc2ccc(N3CCN(C)CC3)c(F)c2)nc1NC1CC1
[6]
  half-life: 366 min
[7]
  CL/F: 315 mL/min/kg
[23]
  IC50: 6 nM
[8]
  bioavailability: 23.4%
[9]
  half-life: 234 min
[11]
  Cmax: 52.2 ng/mL
[15]
  Tmax: 222 min
[16]
  AUC(0-t) at 24 h: 1850 ng·h/mL
[24]
  Ratio IC50: 8.5
[25]
  Ratio IC50: 2.7
[26]
  IC50: 16 nM
[27]
  IC50: 51 nM
[19]
  AUC(0-t) at 24 h: 432 ng·h/mL
[1]
  half-life: 73.7 min
[20]
  Cmax: 1540 ng/mL
[21]
  clearance: 51.7 mL/min/kg
[22]
  Tmax: 6 min

## COc1cc(N2CCN(C)CC2)ccc1Nc1ncc(C(=O)Nc2c(C)cccc2C)c(NC2CCC2)n1
[1]
  half-life: 44.1 min

## CN1CCN(c2ccc(Nc3ncc(C(=O)Nc4ccccc4F)c(NC4CCC4)n3)cc2)CC1
[3]
  Activity: 22%
[4]
  Activity: 124%
[5]
  Activity: 100%
[1]
  half-life: 45.6 min

## Cc1cccc(C)c1NC(=O)c1cnc(Nc2ccc(N3CCN(C)CC3)cc2)nc1NC1CC1
[1]
  half-life: 40.8 min

## COc1cccc(C)c1NC(=O)c1cnc(Nc2ccc(N3CCN(C)CC3)cc2)nc1NC1CCC1
[3]
  Activity: 107%
[5]
  Activity: 93%
[1]
  half-life: 31.9 min

## Cc1cccc(C)c1NC(=O)c1cnc(Nc2ccc(N3CCN(C)CC3)c(F)c2)nc1NC1CC1
[1]
  half-life: 60.3 min

## Cc1cccc(C)c1NC(=O)c1cnc(Nc2ccc(N3CCN(C)CC3)c(F)c2)nc1NC1CCC1
[1]
  half-life: 62.4 min

## Cc1cccc(Cl)c1NC(=O)c1cnc(Nc2ccc(N3CCN(C)CC3)cc2)nc1NC1CCC1
[3]
  Activity: 20%
[4]
  Activity: 31%
[5]
  Activity: 68%
[1]
  half-life: 43.3 min

## COc1ccc(N2C(=O)N(c3c(C)cccc3Cl)Cc3cnc(Nc4ccc(C5CCN(C)CC5)cc4OC)nc32)nc1
[28]
  fraction unbound: > 0.06
[2]
  half-life: > 120 min

## Cc1cccc(F)c1NC(=O)c1cnc(Nc2ccc(N3CCN(C)CC3)cc2)nc1NC1CCC1
[3]
  Activity: 1%
[5]
  Activity: 9%
[1]
  half-life: 69.3 min

## Cc1cccc(C)c1NC(=O)c1cnc(Nc2ccc(N3CCN(C)CC3)cc2)nc1NC1CCCC1
[1]
  half-life: 32.4 min
